According to the RepoRT retention time repository (doi:10.1007/s00216-021-03828-0):
Structures can show the parent of a compound that is named as a salt.

What was measured:
Settings in all cases: stereoisomer not certain
[1] = RP, Merck Supelco Ascentis Express C18, 100 × 2.1 mm, 2 µm, 40 °C, 0.2 mL/min, estimated dead time 1.1 min; A: water + 0.1% formic acid, pH 3; B: acetonitrile + 0.1% formic acid, pH 3; gradient (min/%B) 0/5 2/5 17/99.9 20/99.9
[2] = RP, Merck Supelco Ascentis Express C18, 100 × 2.1 mm, 2 µm, 40 °C, 0.4 mL/min, estimated dead time 0.55 min; A: water + 0.1% formic acid, pH 3; B: acetonitrile + 0.1% formic acid, pH 3; gradient (min/%B) 0/5 2/5 17/99.9 20/99.9
[3] = as above; remark: listed apart in the source
[4] = RP, Merck Supelco Ascentis Express C18, 100 × 2.1 mm, 2 µm, 40 °C, 0.25 mL/min, estimated dead time 0.88 min; A: water + 0.1% formic acid, pH 3; B: acetonitrile + 0.1% formic acid, pH 3; gradient (min/%B) 0/5 2/5 17/99.9 20/99.9
[5] = RP, Merck Supelco Ascentis Express C18, 100 × 2.1 mm, 2 µm, 40 °C, 0.35 mL/min, estimated dead time 0.63 min; A: water + 0.1% formic acid, pH 3; B: acetonitrile + 0.1% formic acid, pH 3; gradient (min/%B) 0/5 2/5 17/99.9 20/99.9
[6] = RP, Merck Supelco Ascentis Express C18, 100 × 2.1 mm, 2 µm, 40 °C, 0.2 mL/min, estimated dead time 1.1 min; A: water + 0.1% formic acid, pH 3; B: acetonitrile + 0.1% formic acid, pH 3; gradient (min/%B) 0/5 2/5 17/99.9 20/99.9; remark: listed apart in the source
[7] = RP, Merck Supelco Ascentis Express C18, 100 × 2.1 mm, 2 µm, 39 °C, 0.3 mL/min, estimated dead time 0.73 min; A: water + 0.1% formic acid, pH 3; B: acetonitrile + 0.1% formic acid, pH 3; gradient (min/%B) 0/5 2/5 17/99.9 20/99.9

Row | LC retention time [1] [min] | LC retention time [2] [min] | LC retention time [3] [min] | LC retention time [4] [min] | LC retention time [5] [min] | LC retention time [6] [min] | LC retention time [7] [min] | Compound
1 | 3.99 | 2.05 | 2.02 | 3.27 | 2.33 | – | – | CC(CCC(=O)O)C(=O)O (stereo not drawn) [2-METHYLGLUTARATE]
2 | 2.44 | 0.99 | 1.16 | – | 1.35 | 2.46 | – | CC(=CC(=O)O)C(=O)O [2-METHYLMALEATE]
3 | 9.69 | – | 8.13 | – | 8.4 | – | – | CCCCCCCCCC(C)=O [2-UNDECANONE]
4 | 1.41 | – | 0.677 | – | 0.79 | – | – | O=C(O)C(O)c1ccc(O)c(O)c1 (stereo not drawn) [3,4 DIHYDROXYMANDELATE]
5 | 1.39 | – | 0.663 | – | 0.783 | – | – | OCC(O)c1ccc(O)c(O)c1 (stereo not drawn) [3,4-DIHYDROXYPHENYLGLYCOL]
6 | 5.47 | – | 3.59 | – | 3.94 | – | – | O=Cc1cccc(O)c1 [3-HYDROXYBENZALDEHYDE]
7 | 3.97 | – | 2.02 | – | 2.33 | – | – | OCc1cccc(O)c1 [3-HYDROXYBENZYL ALCOHOL]
8 | 2.12 | – | 1.04 | – | 1.21 | – | – | COc1cc(C(O)C(=O)O)ccc1O (stereo not drawn) [3-METHOXY-4-HYDROXYMANDELATE]
9 | 4.64 | – | 2.54 | – | 2.96 | – | – | CCC(C)C(=O)C(=O)O (stereo not drawn) [3-METHYL-2-OXOVALERATE]
10 | 5.87 | – | 3.93 | – | 4.3 | – | – | Nc1ccc(C(=O)O)cc1 [4-AMINOBENZOATE]
11 | – | – | 1.07 | – | 1.21 | – | – | COc1cc(C(O)CO)ccc1O (stereo not drawn) [4-HYDROXY-3-METHOXYPHENYLGLYCOL]
12 | 1.51 | 0.737 | 0.74 | – | 0.853 | 1.53 | 1.01 | NCC(=O)CCC(=O)O [5-AMINOLEVULINATE]
13 | 3.99 | 2.04 | 2.02 | 3.27 | 2.33 | – | – | O=C(O)CCCCC(=O)O [ADIPATE]
14 | – | – | 17.9 | – | 18.3 | – | – | CCCCCCCCCCCCCCCCCCCC(=O)O [ARACHIDATE]
15 | – | 8.82 | – | 10 | 9.28 | 10.7 | 9.52 | CCCCCCCC(=O)O [CAPRYLATE]
16 | 1.49 | 0.76 | 0.717 | – | 0.86 | – | – | CC(O)(CC(=O)O)C(=O)O (stereo not drawn) [CITRAMALATE]
17 | 12.8 | 10.8 | – | 12 | – | 12.7 | 11.5 | CCCCCCCCCC(=O)O [DECANOATE]
18 | – | 0.667 | – | 1.09 | 0.77 | 1.38 | 0.883 | Nc1ncnc2c1ncn2C1CC(O)C(CO)O1 (stereo not drawn) [DEOXYADENOSINE]
19 | – | – | – | – | 10.8 | – | – | CC(CCC(=O)O)C1CCC2C3CCC4CC(O)CCC4(C)C3CC(O)C12C (stereo not drawn) [DEOXYCHOLATE]
20 | 6.29 | – | – | – | 4.92 | – | – | CCOC(=O)C(=O)C(C)C(=O)OCC (stereo not drawn) [DIETHYL 2-METHYL-3-OXOSUCCINATE]
21 | 16.5 | 14.5 | 14.5 | 15.8 | 14.8 | – | – | CCC=CCC=CCC=CCC=CCC=CCC=CCCC(=O)O [DOCOSAHEXAENOATE]
22 | – | – | 0.667 | – | – | – | – | Cc1cn(C2CC(O)C(COP(=O)(O)OP(=O)(O)OC3OC(CO)C(O)C(O)C3O)O2)c(=O)[nH]c1=O [DTDP-D-GLUCOSE]
23 | – | – | 17.8 | – | 18.2 | – | – | CCCCCCCCC=CCCCCCCCCCCCC(=O)O [ERUCATE]
24 | – | – | 0.87 | – | 0.997 | – | – | OCC(O)C(O)CO (stereo not drawn) [ERYTHRITOL]

Row | LC retention time [1] [min] | LC retention time [2] [min] | LC retention time [3] [min] | LC retention time [4] [min] | LC retention time [5] [min] | LC retention time [6] [min] | LC retention time [7] [min] | Compound
25 | 4.67 | – | 3.63 | – | 3.77 | – | – | Cc1cc2nc3c(=O)[nH]c(=O)nc-3n(CC(O)C(O)C(O)COP(=O)(O)OP(=O)(O)OCC3OC(n4cnc5c(N)ncnc54)C(O)C3O)c2cc1C (stereo not drawn) [FAD]
26 | 16.2 | – | 14.1 | – | 14.5 | – | – | CCCCCC=CCC=CCC=CCCCCC(=O)O [GAMMA-LINOLENATE]
27 | – | – | – | – | 0.757 | – | – | Nc1nc2c(ncn2C2OC(COP(=O)(O)OP(=O)(O)OC3OC(CO)C(O)C(O)C3O)C(O)C2O)c(=O)[nH]1 (stereo not drawn) [GUANOSINE DIPHOSPHATE MANNOSE]
28 | 1.36 | 0.667 | – | 1.09 | 0.757 | 1.37 | 0.89 | Nc1nc2c(ncn2C2OC(CO)C(O)C2O)c(=O)[nH]1 (stereo not drawn) [GUANOSINE]
29 | 18.5 | 16.4 | 16.3 | 17.7 | 16.7 | – | – | CCCCCCCCCCCCCCCCC(=O)O [HEPTADECANOATE]
30 | 6.69 | – | – | – | 5.36 | – | – | CCCCCCC(=O)O [HEPTANOATE]
31 | – | 5.6 | 5.56 | 6.63 | 5.84 | 7.21 | 6.2 | O=C(O)Cc1c[nH]c2ccccc12 [INDOLE-3-ACETATE]
32 | – | – | 3.2 | – | 3.57 | – | – | O=S(=O)(O)Oc1c[nH]c2ccccc12 [INDOXYL SULFATE]
33 | 2.44 | 1.21 | 1.14 | – | 1.35 | 2.46 | – | C=C(CC(=O)O)C(=O)O [ITACONATE]
34 | 4.65 | – | 0.77 | – | 0.88 | – | – | CC(C)CC(=O)C(=O)O [KETOLEUCINE]
35 | – | – | 1.05 | – | – | – | – | Nc1ccccc1C(=O)CC(N)C(=O)O (stereo not drawn) [KYNURENINE]
36 | 17 | 13.1 | – | – | 15.3 | – | – | CCCCCC=CCC=CCCCCCCCC(=O)O [LINOLEATE]
37 | 5.99 | – | 3.63 | – | 3.91 | – | – | COC(=O)c1ccc(O)c(OC)c1 [METHYL VANILLATE]
38 | 1.71 | 0.863 | 0.807 | 1.37 | 0.957 | – | – | CC(C(=O)O)C(=O)O [METHYLMALONATE]
39 | 1.55 | 0.72 | 0.73 | 1.2 | 0.863 | 1.57 | – | CC(O)(CCO)CC(=O)[O-] (stereo not drawn) [MEVALONATE]
40 | 3.99 | – | 2.02 | – | 2.33 | – | – | COC(=O)CCCC(=O)O [MONOMETHYLGLUTARATE]
41 | 11.7 | 9.85 | – | 11.1 | – | 11.7 | 10.5 | CCCCCCCCC(=O)[O-] [NONANOATE]
42 | 1.48 | 0.667 | 0.707 | – | 0.833 | – | – | O=C(O)CCCC(=O)C(=O)O [OXOADIPATE]
43 | 16.7 | 14.6 | 14.5 | 15.9 | – | 16.7 | 15.3 | CCCCCCC=CCCCCCCCC(=O)[O-] [PALMITOLEATE]
44 | 1.34 | – | – | 1.07 | 0.757 | 1.35 | – | c1ncc2[nH]cnc2n1 [PURINE]
45 | – | 1.55 | 1.52 | 3.05 | 1.78 | – | – | Oc1ccccc1O [PYROCATECHOL]
46 | 19.1 | 16.9 | 16.9 | 18.3 | 17.2 | – | – | CCCCCCCCCCCCCCCCCC(=O)[O-] [STEARATE]
47 | 1.49 | – | 0.73 | – | 0.827 | – | – | O=C(O)CCC(=O)O [SUCCINATE]
48 | 12.2 | – | 10.5 | – | 10.8 | – | – | CC(CCC(=O)O)C1CCC2C3C(O)CC4CC(O)CCC4(C)C3CCC12C (stereo not drawn) [URSODEOXYCHOLATE]

Row | Compound | LC retention time [1] [min] | LC retention time [2] [min] | LC retention time [3] [min] | LC retention time [4] [min] | LC retention time [5] [min] | LC retention time [6] [min] | LC retention time [7] [min]
49 | Nc1ccccc1C(=O)O [ANTHRANILATE] | 5.87 | – | 3.93 | – | 4.29 | – | –
50 | CC1NCCc2cc(O)c(O)cc21 (stereo not drawn) [SALSOLINOL] | 1.44 | – | 0.68 | – | 0.82 | – | –
